Patent US20220267258A1, “ROBENIDINE ANALOGS AS POTENT ANTIMALARIALS AGAINST DRUG-RESISTANT PLASMODIUM FALCIPARUM” (OREGON HEALTH & SCIENCE UNIVERSITY, priority 2021, published 2022)
Where two headings read alike, the source gives them in different places.

What was measured:
[1] = tested on: P. falciparum Dd2 infected erythrocytes; experiment: SYBR Green assay adapted to 48, 72 or 96 hr incubation; type: cell-based; conditions: Plasmodium falciparum, DD2, Erythrocyte
Protocol: Many drugs have activity dependent on their exposure time in addition to concentration, and antimalarial potency is frequently stage-specific. To determine whether the aminoguanidines acted by a time-dependent mechanism against malaria parasites, the SYBR Green activity assay was adapted to include additional incubation intervals. Two potent aminoguanidines, 16 and 21, were incubated with P. falciparum Dd2 infected erythrocytes for 48, 72, or 96 hours (FIG. 3). […] A shorter incubation time allows for less parasite growth for all drug conditions, producing data with proportionally greater variability or ‘noise.’ Conversely, longer incubation times reduce noise in the resulting data.
Aminoguanidine activity appears to be driven primarily by drug concentration rather than by lengthening drug incubation time.
(§1) The aminoguanidine series was assessed for in vitro antiplasmodial activity using the fluorescence-based SYBR Green assay described previously by Smilkstein and co-workers.^38 Compounds were evaluated in quadruplicate in flat-bottomed Costar clear 96-well plates (Model #3585). A two-fold serial dilution of each compound was performed across the columns of the test plates starting with 20 μM and ending with a final untreated column to serve as control wells. Asynchronous parasite infected erythrocytes in growth media were added to each well for a total volume of 100 μL, final hematocrit of 2%, and initial parasitemia of 0.2%. The commercial malaria drugs atovaquone and chloroquine were used as control drugs. Test plates were incubated for 72 hr at 37° C. in an environmental chamber with a controlled low oxygen atmosphere (5% O2, 5% CO2, 90% N2). After the incubation period, 100 μL SYBR Green I dye-detergent solution was added to each well, and the plates were incubated at ambient temperature and atmosphere in the dark for at least one hour. Fluorescence was read at 497 nm excitation and 520 nm emission bands using a Spectramax iD3 plate reader. Fluorescence readings were normalized with respect to the untreated control wells representing normal parasite growth and plotted against the logarithm of drug concentration.

P. falciparum A6 = experiment: SYBR Green growth inhibition assay, P. falciparum A6; type: cell-based, Plasmodium falciparum; conditions: read-out: IC50 A6
Protocol: (§2) In addition to the drug-sensitive P. falciparum D6 strain, the aminoguanidines were assessed against three drug-resistant strains (Tables 1-3).
(§3) The following parasite strains were used in this study and obtained through BEI Resources, NIAID, NIH. […] The culture medium used was RPMI-1640, supplemented with 25 mM HEPES buffer, 25 mg/L gentamicin sulfate, 45 mg/L hypoxanthine, 10 mM glucose, 2 mM glutamine, and 0.5% Albumax II (complete medium).^43 Cultures were maintained in a standard low oxygen atmosphere (5% O2, 5% CO2, 90% N2) in an environmental chamber and incubated at 37° C. Cultures were sub-passaged every 3-4 days into a fresh culture flask containing complete media and erythrocytes.
as §1

Plasmodium yoelii = experiment: modified 4-day Peters test, murine malaria; type: in vivo, mice; conditions: for P. yoelii ED50 / P. yoelii ED90: oral gavage days 1-4, parasitemia day 5; for P. yoelii NRD (non-recrudescence dose, cure dose): oral, doses up to 25 mg/kg/day, no parasites at day 30; for cure in this model: 4-day oral dosing, 0% parasitemia at day 30
Protocol: In this modified 4-day Peters test,^41 mice were inoculated with parasites from a donor mouse (day 0), and then dosed orally with drugs on each of the subsequent four days (days 1-4). On day 5 of the experiment, the parasitemia for each mouse was determined microscopically by examining methanol-fixed and Giemsa-stained blood smears. The ED50 represents the interpolated dose of a compound at which parasitemia was suppressed to one half that of untreated controls. Similarly, the ED90 represents the dose at which parasitemia is suppressed ten-fold. Mice were considered cured of their infection if no parasites were detected in the blood 30 days from the first drug administration, and the non-recrudescence dose (NRD) represents the lowest dose to achieve a cure.
The in vivo ED50 and ED90 of selected aminoguanidines was measured using a modified 4-day Peters test. Female CF1 mice from Charles River Laboratories were inoculated intravenously with approximately 2.5-5.0×10^4 parasitized erythrocytes (murine malaria P. yoelii, Kenya strain MR4 MRA-428) from a donor mouse (experiment day zero). On the following four days (experiment days 1-4), solutions of the test compounds in PEG-300 (or PEG-300 only for control mice) were administered by oral gavage once daily. […] Parasitemia of each mouse was determined by microscopic examination of Giemsa stained blood smears on day 5. ED50 and ED90 values were assessed by generating dose-response curves relative to untreated controls using Graphpad Prism (v. 8). Mice were considered cured of malarial infection if they maintained 0% parasitemia at experiment day 30. The procedures involved, together with all matters relating to the care, handling, and housing of the animals used in this study, were approved by the Portland VA Medical Center Institutional Animal Care and Use Committee.

P. falciparum strain D6 = experiment: SYBR Green growth inhibition assay, P. falciparum D6; type: cell-based, Plasmodium falciparum; conditions: read-out: IC50 D6
Protocol: (§4) The in vitro activity of each compound in the aminoguanidine library was assessed against asynchronous cultures of Plasmodium falciparum parasites replicating within human erythrocytes (Tables 1-3). As the chemical development of robenidine was not discussed in its original publication in 1970^4 and limited structural information is available regarding its mechanism of action,^10 profiling was guided primarily by in vitro potency against the P. falciparum D6 strain cultured in human erythrocytes as described above.
as §3
as §1, with “The commercial malaria drugs atovaquone and chloroquine were used as control drugs.” left out

P. falciparum Dd2 = experiment: SYBR Green growth inhibition assay, P. falciparum Dd2; type: cell-based, Plasmodium falciparum; conditions: read-out: IC50 Dd2
Protocol: as §2, §3, §1

[2] = HepG2 cytotoxicity assay (resazurin); type: cell-based, human; conditions: human, HepG2 cells; HepG2, 24 hr drug, 24 hr recovery
Protocol: (§5) In this assay, HepG2 cells were incubated with test compounds for 24 hours, followed by a 24-hour recovery period and subsequent staining to evaluate for cytotoxic effects with resazurin. The ratio of the resulting HepG2 IC50 value to the P. falciparum D6 IC50 value can be considered an ‘in vitro therapeutic index,’ or IVTI.
(§6) Compounds were prepared as 10 mM stock solutions in DMSO. […] HepG2 cells were added to each well of flat bottom 96-well tissue culture plates at an initial density of 2×10^4 cells per well, and an initial volume of 160 μL complete medium per well. After an overnight incubation at 37° C. to adhere the cells to the culture plates, 40 μL drug solutions in complete medium were applied to each well at a final concentration range of 0 to 200 μM across each plate. Drugs were tested in triplicate or quadruplicate. The cells were incubated for 24 hours at 37° C. and 5% CO2 with the drug solutions, which were then aspirated and replaced with 200 μL per well of complete medium for an additional 24 hour incubation under the same conditions. To each well was added 20 μL of resazurin (Alamar Blue) in PBS buffer to a final concentration of 10 μM, and the plates were incubated for 3 hours. Fluorescence was measured at 560 nm excitation and 590 nm emission bands using a Spectramax iD3 plate reader. Fluorescence readings were normalized with respect to the untreated control wells and plotted against the logarithm of drug concentration.

P. falciparum Tm90-C2B = experiment: SYBR Green growth inhibition assay, P. falciparum Tm90-C2B; type: cell-based, Plasmodium falciparum; conditions: read-out: IC50 Tm90-C2B
Protocol: as §2, §3, §1

[3] = tested on: human hepatoma derived HepG2 cells; experiment: HepG2 cytotoxicity assay (resazurin); type: cell-based; conditions: for IC50: HepG2, 24 hr drug, 24 hr recovery
Protocol: as §5, §6

P. falciparum strains = type: cell-based, Plasmodium falciparum
Protocol: as §4
All aminoguanidines synthesized were also evaluated against three multi-drug resistant P. falciparum strains (Dd2, Tm90-C2B, and A6) and for mammalian cell cytotoxicity.
as §2
as §1, with “The commercial malaria drugs atovaquone and chloroquine were used as control drugs.” left out

T. cuzi = conditions: read-out: in vitro IC50; cited from earlier work
T. brucei = conditions: read-out: in vitro IC50; cited from earlier work
P. falciparum = P. falciparum in vitro, in words; cited from earlier work
Leishmania donovani = conditions: read-out: in vitro IC50; cited from earlier work
[4] = Plasmodium falciparum, D6, Erythrocyte, 72 h
[5] = Plasmodium falciparum, DD2, 72 h
[6] = Plasmodium falciparum, TM90, 72 h

SMILES | IC50 (P. falciparum A6; Plasmodium falciparum, 72 h) | P. yoelii ED90 (Plasmodium yoelii) | P. yoelii NRD (non-recrudescence dose, cure dose) (Plasmodium yoelii) | IC50 (P. falciparum strain D6; [4]) | IC50 (P. falciparum Dd2; [5]) | IC50 at 24 h [2] | IC50 (P. falciparum Tm90-C2B; [6]) | further results
N=C(N/N=C/c1ccc(OC(F)(F)F)cc1)N/N=C/c1ccc(OC(F)(F)F)cc1 [Compound 16] | 0.052 µM | 3.7 mg/kg/day | 12.5 mg/kg/day | 0.039 µM | 0.083 µM | 11 µM | 0.114 µM | IC50 ([1]; 48 h, read-out: IC50 Dd2 48 hr): 0.41 µM; IC50 ([1]; 72 h, read-out: IC50 Dd2 72 hr): 0.195 µM; IC50 ([1]; 96 h, read-out: IC50 Dd2 96 hr): 0.192 µM; P. yoelii ED50 (Plasmodium yoelii): 1.2 mg/kg/day
CCN(CC)CCCC(C)Nc1ccnc2cc(Cl)ccc12 (centres unmarked) [Chloroquine, reference compound] | 0.016 µM | – | – | – | 0.07 µM | – | 0.297 µM | cure in this model (Plasmodium yoelii): not curative; IC50 [3]: 181 µM
N#Cc1cccc(/C=N/NC(=N)N/N=C/c2cccc(C#N)c2)c1 [Compound 21] | 0.024 µM | 9.4 mg/kg/day | >25 mg/kg/day | 0.007 µM | 0.02 µM | 7 µM | 0.031 µM | IC50 ([1]; 48 h, read-out: IC50 Dd2 48 hr): 0.031 µM; IC50 ([1]; 72 h, read-out: IC50 Dd2 72 hr): 0.021 µM; IC50 ([1]; 96 h, read-out: IC50 Dd2 96 hr): 0.022 µM; P. yoelii ED50 (Plasmodium yoelii): 7.1 mg/kg/day; effect on Hep2G activity ([3]; concentrations as high as 200 μM): no measurable effect
N=C(N/N=C/c1ccc(-n2cnnn2)cc1)N/N=C/c1ccc(-n2cnnn2)cc1 [Compound 35] | > 5 µM | – | – | 0.838 µM | > 5 µM | > 200 µM | > 5 µM | activity against all tested P. falciparum strains (P. falciparum strains; D6, Dd2, Tm90-C2B, A6): inactive
N=C(N/N=C/c1cccc(-n2cnnn2)c1)N/N=C/c1cccc(-n2cnnn2)c1 [Compound 34] | 4.79 µM | – | – | 1.65 µM | > 5 µM | 107 µM | > 5 µM | activity against all tested P. falciparum strains (P. falciparum strains; D6, Dd2, Tm90-C2B, A6): inactive
N#Cc1cc(/C=N/NC(=N)N/N=C/c2ccc(F)c(C#N)c2)ccc1F [Compound 1] | 0.014 µM | 0.28 mg/kg/day | >25 mg/kg/day | 0.004 µM | 0.012 µM | 8 µM | 0.016 µM | cure in this model (Plasmodium yoelii): not curative; IC50 values against P. falciparum strains (P. falciparum strains; in words): single-digit nanomolar
Cl.Cl.Cl.N=C(N)c1cccc(/C=N/N=C(\N)N/N=C/c2cccc(C(=N)N)c2)c1 [CGP 40215A] | – | – | – | – | – | – | – | IC50 (T. cuzi): 20 µM; IC50 (T. brucei): 20 µM; IC50 value (P. falciparum): low micromolar; IC50 (Leishmania donovani): 18 µM
N=C(NN=Cc1ccc(C(=O)O)cc1)NN=Cc1ccc(C(=O)O)cc1 [Compound 29] | – | – | – | – | – | – | – | IC50 (P. falciparum A6; mutant line resistant to respiratory antagonists, 72 hr): > 5 µM; IC50 (P. falciparum strain D6; pan-sensitive strain, 72 hr, asynchronous cultures in human erythrocytes): > 5 µM; activity against all tested P. falciparum strains (P. falciparum strains): inactive; IC50 (P. falciparum Dd2; multi-drug resistant strain, 72 hr): > 5 µM; IC50 [3]: > 200 µM; IC50 (P. falciparum Tm90-C2B; multi-drug resistant clinical isolate, also atovaquone resistant, 72 hr): > 5 µM
